Data: patent US10874686B2, “Anthranilyl-adenosinemonosulfamate analogs and uses thereof” (Memorial Sloan-Kettering Cancer Center, priority 2015, dated 2020)

Legend:
[1] = tested on: HHQ and PQS quinolone production in P. aeruginosa strain PA14; test: Inhibition of HHQ and PQS quinolone production in P. aeruginosa strain PA14 (LC-MS/MS); assay type: cell-based, Pseudomonas aeruginosa; conditions: 1.5 mM, HHQ 8 h, PQS 20 h
Experimental: The production of PQS and HHQ by strain PA14 was performed in triplicate in 14-mL round bottom falcon tubes containing 3-mL cultures in LB medium. Tubes were incubated at 37° C. in an orbital shaker at 225 rpm. Cultures were inoculated with 15-hour culture in LB in order to obtain a starting OD600=0.05, with or without inhibitors added. For PQS and HHQ analysis, a 20 μl aliquot was taken at time points as indicated. Each sample was diluted with 180 μL of methanol containing the internal standard (100 μM of d^4-PQS or d^4-HHQ) and 2% acetic acid. The solution was then vertexed and centrifuged at 13,000 g for 5 minutes, and the supernatant was transferred to a 96-well plates for LC-MS/MS analysis. Bacterial growth was measured by recording OD600 at 20 h to provide the data in FIG. 7A.
Liquid chromatography tandem mass spectrometry (LC-MS/MS) was carried out on an Agilent Technologies 6410 triple quad LC-MS/MS system with autosampler in electrospray ionization (ESI) mode, with an Agilent Zorbax Eclipse XDB-C18 reverse phase column (50×4.6 mm, 5 μm) using a flow rate of 0.5 mL/minute and an isocratic mobile phase of 60% CH3CN in 0.1% aqueous formic acid over 5 minutes. Positive electrospray in MRM mode was employed to quantify PQS and HHQ, using the ion transitions HHQ 244 to 159, d^4-HHQ 248 to 163, PQS 260 to 175, and d^4-PQS 264 to 179; shown in Table E3.
PqsA inhibitors 1-5 were evaluated for their ability to inhibit HHQ and PQS quinolone production in P. aeruginosa strain PA14 (FIG. 6). HHQ and PQS concentrations were determined by LC-MS/MS quantitation relative to deuterated internal standards. 6-Fluoroanthranilate (6FABA), a substrate analogue reported previously to inhibit quinolone production at millimolar concentrations, was used as a positive control. Compounds were initially tested at 1.5 mM concentration, and HHQ and PQS were quantified at 8 and 20 hours, respectively. These time points were selected based on an initial time course study of quinolone production in the absence of inhibitors, with HHQ or PQS production peaking at these respective time points. […] This could be due to differences in cell penetration, stability, and/or target specificity. Finally, because inhibitors of the quinolone quorum sensing pathway should not impact bacterial growth, we confirmed that none of the six inhibitors above inhibited growth over 20 h (FIG. 7A). Encouraged by the ability of anthranilyl-AMS (1) and anthranilyl-AMSN (2) to inhibit HHQ and PQS quinolone production, the activity of these two inhibitors and 6FABA were investigated in greater detail. In untreated controls, HHQ and PQS production peaked at 8 and 20 hours, respectively. Previously reported time course studies have similarly shown that HHQ levels peak at 6-8 hours while PQS levels continue to rise. See, e.g., Deziel et al. (2004) Proc. Natl. Acad. Sci. U.S.A 101, 1339; Kesarwani et al. (2011) PLoS Pathog. 7, e1002192. All three inhibitors were able to decrease quinolone production in a dose- and time-dependent manner (FIG. 2A). […] Such a perturbation might still be sufficient to impact P. aeruginosa virulence in vivo. […] See, e.g., Lesic et al. (2007) PLoS Pathog. 3, e126.

P. aeruginosa PqsA = P. aeruginosa PqsA (Pseudomonas aeruginosa, UniProt Q9I4X3); test: PqsA inhibition, spectrophotometric assay with recombinant PqsA (anthranilyl-CoA formation at 365 nm); assay type: biochemical; conditions: for PqsA inhibition, potency in words: short time scale of the assay; for IC50: IC50 for inhibition of P. aeruginosa PqsA; for inhibition at 10 µM: read-out: % inhibition at 10 μM of P. aeruginosa PqsA, 10 μM
Experimental: PqsA inhibitors were evaluated using a quantitative spectrophotometric assay with recombinant PqsA, detecting formation of anthranilyl-CoA at 365 nm. See, e.g., Coleman et al. (2008) J. Bacteriol. 190, 1247. […] See, e.g., Morrison et al. Biochim. Biophys. Acta, Enzymol. 185, 269-286; Williams et al. (1979) Methods Enzymol. 63, 437. […] See, e.g., Qiao et al. (2007) J. Am. Chem. Soc. 129, 6350.
Reactions were performed at 37° C. in a 0.5 mL volume in a Varian Cary 100 UV-visible spectrophotometer with Cary WinUV software. Reaction mixtures contained 100 mM HEPES, pH 8.0, 0.2 mM dithiothreitol, 2 mM MgCl2, ˜3.3 μg PqsA protein (˜60 nM final), and depending on which substrate varied, 1 mM ATP (disodium salt), 0.5 mM coenzyme A (tri-lithium salt), 0.5 mM sodium anthranilate, and inhibitor (usually as a DMSO stock solution). Reactions were blanked and preincubated with all components except anthranilate at 37° C. for 1 min, then initiated by addition of anthranilate. Formation of anthraniloyl-CoA was monitored ance at 365 nm (ε=5.5 mM−1 cm−1) for 1 min. Data were analyzed using GraphPad Prism 6 software.

PqsA = PqsA (Pseudomonas aeruginosa, UniProt Q9I4X3); conditions: previous biochemical studies; read-out: Km as PqsA substrate; cited from earlier work

SMILES	IC50 (P. aeruginosa PqsA) [nM]	inhibition at 10 µM (P. aeruginosa PqsA) [%]	further results
Nc1ncnc2c1ncn2[C@@H]1O[C@H](COS(=O)(=O)NC(=O)c2ccccc2)[C@@H](O)[C@H]1O [Benzoyl-AMS, reference compound]			inhibition of quinolone production, in words [1]: less potent inhibitors of quinolone production; PqsA inhibition, potency in words (P. aeruginosa PqsA): somewhat weaker inhibitor
Nc1ccccc1C(=O)NS(=O)(=O)OC[C@H]1O[C@@H](n2cnc3c(N)ncnc32)[C@H](O)[C@@H]1O [DST-Pqs1]	309	98.6 ± 2.3	
Nc1ccccc1C(=O)NS(=O)(=O)NC[C@H]1O[C@@H](n2cnc3c(N)ncnc32)[C@H](O)[C@@H]1O [DST-Pqs2]	213	100	
Nc1ncnc2c1ncn2[C@@H]1O[C@H](COS(=O)(=O)NC(=O)c2cccnc2Cl)[C@@H](O)[C@H]1O [DST-Pqs8]		10.3 ± 5.3	
Nc1cc2ccccc2cc1C(=O)NS(=O)(=O)OC[C@H]1O[C@@H](n2cnc3c(N)ncnc32)[C@H](O)[C@@H]1O [DST-Pqs9]		< 1	
Nc1cc(C(F)(F)F)ccc1C(=O)NS(=O)(=O)OC[C@H]1O[C@@H](n2cnc3c(N)ncnc32)[C@H](O)[C@@H]1O [DST-Pqs10]		1.1 ± 2.6	
Nc1cc(F)ccc1C(=O)NS(=O)(=O)OC[C@H]1O[C@@H](n2cnc3c(N)ncnc32)[C@H](O)[C@@H]1O [DST-Pqs11]	107	100	
Nc1cccc(F)c1C(=O)NS(=O)(=O)OC[C@H]1O[C@@H](n2cnc3c(N)ncnc32)[C@H](O)[C@@H]1O [DST-Pqs12]	516	100	
Nc1c(Cl)cccc1C(=O)NS(=O)(=O)OC[C@H]1O[C@@H](n2cnc3c(N)ncnc32)[C@H](O)[C@@H]1O [DST-Pqs13]	1230	97.2 ± 1.2	
Nc1cc(Cl)ccc1C(=O)NS(=O)(=O)OC[C@H]1O[C@@H](n2cnc3c(N)ncnc32)[C@H](O)[C@@H]1O [DST-Pqs14]	828		
Nc1ccc(Cl)cc1C(=O)NS(=O)(=O)OC[C@H]1O[C@@H](n2cnc3c(N)ncnc32)[C@H](O)[C@@H]1O [DST-Pqs15]	1520	97.3 ± 0.9	
Nc1cccc(Cl)c1C(=O)NS(=O)(=O)OC[C@H]1O[C@@H](n2cnc3c(N)ncnc32)[C@H](O)[C@@H]1O [DST-Pqs16]	552	100	
Nc1ccccc1C(=O)NS(=O)(=O)OC[C@H]1O[C@@H](n2cnc3c(NC4CC4)ncnc32)[C@H](O)[C@@H]1O [DST-Pqs17]		1.3 ± 3	
CN(C)c1ncnc2c1ncn2[C@@H]1O[C@H](COS(=O)(=O)NC(=O)c2ccccc2N)[C@@H](O)[C@H]1O [DST-Pqs18]		21.3 ± 1.9	
CNc1ncnc2c1ncn2[C@@H]1O[C@H](COS(=O)(=O)NC(=O)c2ccccc2N)[C@@H](O)[C@H]1O [DST-Pqs19]	39200	32.1 ± 2.8	
NCc1ccccc1Nc1nc(N)c2ncn([C@@H]3O[C@H](COS(=O)(=O)NC(=O)c4ccccc4N)[C@@H](O)[C@H]3O)c2n1 [DST-Pqs27]	5240	84.8 ± 1.5	
NCc1ccc(Nc2nc(N)c3ncn([C@@H]4O[C@H](COS(=O)(=O)NC(=O)c5ccccc5N)[C@@H](O)[C@H]4O)c3n2)cc1 [DST-Pqs28]			% inhibition at 10 μM of P. aeruginosa PqsA (P. aeruginosa PqsA): 9.5 ± 3.9%

SMILES	IC50 (P. aeruginosa PqsA) [nM]	inhibition at 10 µM (P. aeruginosa PqsA) [%]	further results
NCc1ccc(Nc2nc(N)c3ncn([C@@H]4O[C@H](COS(=O)(=O)NC(=O)c5ccccc5N)[C@@H](O)[C@H]4O)c3n2)cc1 [DST-Pqs29]			% inhibition at 10 μM of P. aeruginosa PqsA (P. aeruginosa PqsA): 76.0 ± 1.3%
Nc1ncnc2c1ncn2[C@@H]1O[C@H](COS(=O)(=O)NC2(c3ccccc3F)COC2)[C@@H](O)[C@H]1O [DST-Pqs30]		< 1	
Nc1ncnc2c1ncn2[C@@H]1O[C@H](COS(=O)(=O)NC2(c3ccccc3O)COC2)[C@@H](O)[C@H]1O [DST-Pqs31]		< 1	
Nc1ncnc2c1ncn2[C@@H]1O[C@H](COS(=O)(=O)NC2(c3ccccc3)COC2)[C@@H](O)[C@H]1O [DST-Pqs32]		2.3 ± 0.9	
Nc1ccccc1C1(NS(=O)(=O)OC[C@H]2O[C@@H](n3cnc4c(N)ncnc43)[C@H](O)[C@@H]2O)COC1 [DST-Pqs33]		4.6 ± 2.9	
Nc1ccccc1C(=O)NS(=O)(=O)OC[C@H]1O[C@@H](n2cnc3c(N)ncnc32)[C@H](N)[C@@H]1N [JI-C-2013-189]	7220	77.8 ± 0.2	
Nc1ccccc1C(=O)NS(=O)(=O)OC[C@H]1O[C@@H](n2cnc3c(N)nc(Nc4ccccc4)nc32)[C@H](O)[C@@H]1O [JI-C-2013-451]	2070	95.1 ± 0.2	
Nc1ccccc1C(=O)NS(=O)(=O)OC[C@H]1O[C@@H](n2cnc3c(N)nc(-c4ccccc4)nc32)[C@H](O)[C@@H]1O [JI-C-2013-454]	25000	42.7 ± 0.2	
Nc1ccccc1C(=O)NS(=O)(=O)OC[C@H]1O[C@@H](n2cnc3c(N)nc(C#Cc4ccccc4)nc32)[C@H](O)[C@@H]1O [JI-C-2013-456]	1460	95.9 ± 0.4	
Nc1ccccc1C(=O)NS(=O)(=O)OC[C@H]1O[C@@H](n2cnc3c(N)ncnc32)C[C@@H]1O [JI-C-2014-008]	444	99.8 ± 0.2	
Nc1ccccc1C(=O)NS(=O)(=O)OC[C@@H]1CC[C@H](n2cnc3c(N)ncnc32)O1 [JI-C-2014-025]	5000	91.2 ± 0.9	
Nc1ccccc1C(=O)O [anthranilate]			Km (PqsA): 8 µM
O=C(O)c1ccccc1 [benzoate]			Km (PqsA): 150 µM
Nc1ccccc1/C=C/S(=O)(=O)NC[C@H]1O[C@@H](n2cnc3c(N)ncnc32)[C@H](O)[C@@H]1O [compound 6, Anthranilyl-AVSN]			PqsA inhibition, potency in words (P. aeruginosa PqsA): not as effective
Nc1ncnc2c1ncn2[C@@H]1O[C@H](CNS(=O)(=O)/C=C/c2ccccc2O)[C@@H](O)[C@H]1O [compound 7, Salicyl-AVSN, reference compound]			PqsA inhibition, potency in words (P. aeruginosa PqsA): not as effective
Nc1ncnc2c1ncn2[C@@H]1O[C@H](COS(=O)(=O)NC(=O)c2ccccc2O)[C@@H](O)[C@H]1O [salicyl-AMS, Salicyl-AMS, reference compound]			inhibition of quinolone production, in words [1]: less potent inhibitors of quinolone production; PqsA inhibition, potency in words (P. aeruginosa PqsA): potency similar to that of the cognate anthranilyl inhibitors
Nc1ncnc2c1ncn2[C@@H]1O[C@H](CNS(=O)(=O)NC(=O)c2ccccc2O)[C@@H](O)[C@H]1O [salicyl-AMSN, Salicyl-AMSN, reference compound]			inhibition of quinolone production, in words [1]: less potent inhibitors of quinolone production; PqsA inhibition, potency in words (P. aeruginosa PqsA): potency similar to that of the cognate anthranilyl inhibitors
